Measurements published in PMC7465886, “4-(N-Alkyl- and -Acyl-amino)-1,2,4-triazole-3-thione Analogs as Metallo-β-Lactamase Inhibitors: Impact of 4-Linker on Potency and Spectrum of Inhibition” (Biomolecules, 2020).

Experiments:
[1] = system: E. coli LZ2310(pLBII-VIM-2); assay: microbe, parasite or virus in culture; type: cell-based, Escherichia coli
Protocol: The potential activity of selected compounds was assessed by the agar disk-diffusion method, according to the CLSI (Clinical Laboratory Standard Institute) recommendations, using Mueller–Hinton medium. The inhibitor (dissolved in DMSO) was added (maximum volume of 15 μL) to a commercially available disk containing a defined amount of a β-lactam antibiotic (30 μg of cefoxitin (Oxoid, Milan, Italy)). After incubation (18 h at 35 °C), the diameter of the growth inhibition zone was measured and compared to that obtained in the absence of inhibitor. DMSO and EDTA (220 μg) were used as negative and positive controls, respectively. Experiments were performed in triplicate.
These tests were performed on an isogenic laboratory strain obtained after transforming Escherichia coli LZ2310 strain with a derivative of the high copy number plasmid pLB-II carrying the cloned blaVIM-2 gene harboring a cloned gene encoding the functional metallo-β-lactamase. Strain LZ2310 is a triple knockout mutant derived from K12 in which the genes encoding for components of the three major efflux pump systems were inactivated (genotype, ∆norE ∆mdfA N43 acrA1) and was used to generate an hyperpermeable background for MBL production and investigate the potential contribution of such mechanisms to inhibitor efflux.

L1 = molecular target: T1, L1 (Stenotrophomonas maltophilia, UniProt P52700); assay: MBL inhibition, L1 (nitrocefin hydrolysis); type: biochemical; conditions: 100 μM inhibitor; read-out: Inhibition of L1 (dash)
T1 construct: made in house
T1 sequence (P52700 34-290): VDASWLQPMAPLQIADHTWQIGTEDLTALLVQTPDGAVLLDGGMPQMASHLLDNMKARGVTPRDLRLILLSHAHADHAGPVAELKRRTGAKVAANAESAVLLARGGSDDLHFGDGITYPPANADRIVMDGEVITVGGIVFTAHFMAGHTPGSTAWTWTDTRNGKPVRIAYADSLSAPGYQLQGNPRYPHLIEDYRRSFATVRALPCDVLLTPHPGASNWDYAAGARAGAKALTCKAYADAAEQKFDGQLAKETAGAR
Protocol: (§1) Compounds were prepared as 10 mM solutions in DMSO before dilution with appropriate buffers. Buffers were 25 mM Hepes pH 7.5 for CphA or 25 mM Hepes pH 7.5, 50 µM ZnCl2 for L1. The rates in the absence of inhibitor were not modified by addition of 1% DMSO. CphA and L1 enzymes, purified as previously described, were used at concentrations between 0.2 and 0.8 nM, respectively. The enzyme and the inhibitor (100 µM) were pre-incubated for 30 min in a volume of 495 µL at room temperature. The hydrolysis of a solution of 100 µM imipenem for CphA was monitored by following the absorbance variation at 300 nm using a Specord 50 PLUS spectrophotometer (Analytik Jena, Jena, Germany). For L1, the reporter substrate was nitrocefin (100 µM). The enzyme activity was measured by following the absorbance variation at 482 nm. The substrate hydrolysis was done at 30 °C. The activity was tested by measuring the initial rates in three samples without inhibitor that allowed to determine the percentage of residual β-lactamase activity in the presence of inhibitors. If the residual activity in the presence of 100 µM inhibitor was <30%, the initial rate conditions were used to study the inhibition in the presence of increasing concentrations of compounds (from 1 to 100 µM) and to determine the competitive inhibition constant Ki. The Hanes linearization of the Henri–Michaelis equation was used, and Ki was calculated on the basis of the following equation, v = (Vmax.S)/[S + Km(1 + I/Ki)]. The assays were performed in triplicates.

VIM-1 = molecular target: T2, VIM-1 (Pseudomonas aeruginosa, UniProt A0A0F7KYQ8); assay: MBL inhibition, reporter substrate method, VIM-1; type: biochemical; conditions: read-out: Inhibition of VIM-1 (dash)
T2 construct: made in house; host or cells: E. coli BL21(DE3) derivative, pET-9a
Protocol: (§2) Compounds were prepared in DMSO at a final concentration of 50 mM prior to dilution in the assay buffer. The reaction rate was measured as the variation of absorbance observed upon substrate hydrolysis in a UV-Vis spectrophotometer or microplate reader at a wavelength of 300 nm (imipenem, meropenem), 260 nm (cefotaxime), or 482 nm (nitrocefin) and in the presence of a purified MBL enzyme (such as VIM-1, VIM-2, VIM-4, NDM-1, and IMP-1, at a final concentration ranging from 1 to 70 nM).
(§3) These enzymes were overproduced in derivatives of E. coli BL21(DE3) carrying a pET-9 a (IMP-1, VIM-1, VIM-2, and VIM-4) or pET-15 b (NDM-1) vector into which the metallo-β-lactamase-encoding open reading frame was cloned. Bacterial strains were grown in the auto-inducing medium, ZYP-5052, supplemented with 50 μg/mL kanamycin for 24 h at 37 °C [38]. IMP-1, VIM-1, VIM-2, and VIM-4 were purified by ion-exchange and gel filtration chromatography using an AKTA Purifier platform (GE Healthcare, Uppsala, Sweden) as previously described. NDM-1 (residues 37-270) was produced as an amino-terminal 6 xHis-tag fusion protein and was purified using affinity chromatography. After growth for 26 h at 25 °C, bacterial cells were harvested by centrifugation (10,000× g, 30 min, 4 °C), resuspended in 10 mM HEPES buffer (pH 7.5) containing 0.15 M NaCl (buffer A) in one-fifth of the original culture volume, and lysed by sonication. Cellular debris was removed by centrifugation (12,000× g, 40 min, 4 °C). The clarified sample was loaded on a HisTrap HP column (bed volume, 5 mL; GE Healthcare), followed by a wash step (25 mL) with buffer A containing 20 mM imidazole. Proteins were eluted using buffer A containing 350 mM imidazole. The resulting protein sample was desalted (HiPrep 26/10 Desalting column, GE Healthcare) using 20 mM triethanolamine (pH 7.2) supplemented with 50 μM ZnSO4 and concentrated using an Amicon Ultra-15 (MW cut-off, 10 kDa; Millipore, Burlington, MA, USA). The concentrated sample was loaded on a Superdex 75 prep grade column (XK16/100 column; bed volume, 140 mL; GE Healthcare) and the proteins eluted with buffer A containing 50 μM ZnSO4. The active fractions were pooled and stored at −20 °C. The purity of the protein preparations was estimated >95% by SDS-PAGE analysis. The authenticity of the enzyme preparations was confirmed by electron spray ionization mass spectrometry, as previously described.
(§4) The inhibition constants (Ki) were determined on the basis of a model of competitive inhibition by analyzing the dependence of the ratio v0/vi (v0, hydrolysis velocity in the absence of inhibitor; vi, hydrolysis velocity in the presence of inhibitor) as a function of [I] as already described. The slope of the plot of v0/vi vs. [I], which corresponds to Km^S/(Km^S + [S])Ki (where Km^S is the Km value of the reporter substrate and [S] its concentration in the reaction mixture) and allowed the calculation of the Ki value. Alternatively, a Dixon plot analysis was carried out by measuring the initial hydrolysis rates in the presence of variable concentrations of inhibitor and substrate. This allowed Ki values to be determined and supported the hypothesis that the various compounds behaved as competitive inhibitors of the various tested enzymes. The assays were performed in triplicate.

VIM-2 = molecular target: T3, VIM-2 (Escherichia coli, UniProt Q5U7L7); assay: MBL inhibition, reporter substrate method, VIM-2; type: biochemical; conditions: hydrazine and hydrazide series; read-out: Ki Value VIM-2
T3 construct: made in house; host or cells: E. coli BL21(DE3) derivative, pET-9a
Protocol: as §2, §3, §4

CphA = molecular target: T4, CphA (Aeromonas hydrophila, UniProt P26918); assay: MBL inhibition, CphA (imipenem hydrolysis); type: biochemical; conditions: read-out: Percentage of Inhibition at 100 μM Inhibitor, CphA
T4 construct: made in house
T4 sequence (P26918 28-254): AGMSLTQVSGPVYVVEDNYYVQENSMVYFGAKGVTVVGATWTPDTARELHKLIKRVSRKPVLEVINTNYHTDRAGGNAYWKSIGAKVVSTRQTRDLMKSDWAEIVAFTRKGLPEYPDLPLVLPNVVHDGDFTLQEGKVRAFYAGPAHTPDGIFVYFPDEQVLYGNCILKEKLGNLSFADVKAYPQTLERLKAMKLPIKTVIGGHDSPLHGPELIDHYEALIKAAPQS
Protocol: as §1, with “If the residual activity in the presence of 100 µM inhibitor was <30%, the initial rate conditions were used to study the inhibition in the presence of increasing concentrations of compounds (from 1 to 100 µM) and to determine the competitive inhibition constant Ki.” left out, “The assays were performed in triplicates.” left out

[2] = Escherichia coli, read-out: Inhibition Zone Diameter

`O=C(O)c1ccccc1CNn1c(-c2ccccc2)n[nH]c1=S` [Compound 1] was tested, and the “Restoration of cefoxitin activity (in words)” value ([1]; 30 μg cefoxitin disk, compound 1 at 48 μg, EUCAST clinical breakpoints) was “able to restore cefoxitin susceptibility”, the zone of inhibition at 16 µg/disc [1, 2] was 13 mm and the zone of inhibition at 32 µg/disc [1, 2] was 16 mm. For the same compound, the zone of inhibition at 48 µg/disc [1, 2] was 20 mm, the inhibition at 100 µM (L1) was under 30% and the inhibition at 100 µM (VIM-1) was under 30%. It also gave a Ki (VIM-2) of 1400 nM and an inhibition at 100 µM (CphA) of 60%.
